From patent publication US9220794B2, “Two-photon fluorescent probes for imaging of total sulfide in live cell and tissue, and quantitative estimation of total sulfide concentration using the same” (Korea University Research and Business Foundation, priority 2013, dated 2015)

Key:
[1] = system: rat colon tissue; experiment: Ratiometric TPM imaging (F2/F1) of rat colon slices; format: in vivo; conditions: basal, slices labeled with 20 μM 2-6
Description: The utility of the compound of [Chemical Formula 2-6] was investigated in living tissues from a 5-week-old rat colon. The inventors were particularly interested in the mucosa, muscularis mucosae and submucosa because they are invaded in the early stage of tumor (FIG. 4c). Since it takes a long time to stain the tissues during which they may be deformed, excess amount (20 μM) of the compound of [Chemical Formula 2-6] was used to facilitate staining.
Because the structure of the colon tissue is heterogeneous, TPEF intensities were acquired from 150 sections along the z-direction at a depth of about 90-170 μm using two detection windows (1 and 2) to visualize the overall sulfide distribution.
Therefore, the sections were divided into two regions and they were assigned as mucosa (90-150 μm) and submucosa including the muscularis mucosae (151-170 μm).
(§1) Male Sprague-Dawley rats (235-265 g) were divided into two groups (5-FU and control groups). In the 5-FU group, 150 mg/kg of 5-FU (SoloPak Laboratories, Franklin Park, Ill.) were intraperitoneally injected into the rats. The rats of the control group were injected with saline. Each group consisted of 4 rats.
All the rats were injected between 9 pm and 12 midnight, were allowed free access to food and water and were housed in the same room with 8-hour cycles.
(§2) 8 hours after the intraperitoneal injection, all the rats were sacrificed. Laparotomy was performed after anesthetizing the rats.
Slices were prepared from the colon of the rats. The colon slices were cut into 2-cm long segments, opened by longitudinal incision and then treated with Dulbecco's phosphate-buffered saline (D-PBS; […]).
The colon slices were incubated with the compound of [Chemical Formula 2-6] (20 μM) in D-PBS bubbled with 95% O2 and 5% CO2 at 37° C. The colon slices were then moved to glass-bottomed dishes, washed 3 times with D-PBS and observed under a confocal multiphoton microscope.
TPEF intensities were collected using detection windows of 390-450 nm and 520-650 nm, with 110 sections at a depth of 90-150 μm (mucosa) and 40 sections at a depth of 151-170 μm (submucosa).
Then ratiometric images were constructed from the TPEF intensities collected using the two detection window. The F2/F1 ratio was expressed as mean±SD and p was set to be smaller than 0.05.

[2] = system: HeLa cells; experiment: Two-photon excited fluorescence spectra of labeled HeLa cells; format: cell-based, human
Description: Accordingly, it can be seen that HEPES/EtOH (1/1) has polarity similar to that of the cellular environment.
This confirms again that HEPES/EtOH (1/1) is a good model of the cellular environment and HS^− can be detected by TPM using the compound of [Chemical Formula 2-6].
HeLa human cervical carcinoma cells were acquired from the ATCC (Manassas, Va., USA). The cells were cultured in DMEM (WelGene, Inc., Seoul, Korea) supplemented with heat-inactivated 10% FBS (WelGene), penicillin (100 units/mL) and streptomycin ([…]).
For labeling, the growth medium was removed and replaced with DMEM without FBS. The cells were incubated with the compound of [Chemical Formula 2-6] ([…]) for 30 minutes, washed 3 times with FBS-free DMEM and imaged.
The TPM images were obtained with the DM IRE2 microscope (Leica) by exciting the probes with a mode-locked titanium-sapphire laser source (Coherent Chameleon, 90 MHz, 200 fs) set at a wavelength of 750 nm and an output power of 1380 mW, which corresponded to an average power of approximately 2 mW in the focal plane.

[3] = pH sensitivity of the fluorescence; format: physicochemical; conditions: biologically relevant pH range
[4] = system: rat colon tissue; experiment: Kinetic measurement of total sulfide in rat colon tissue slices; format: in vivo; conditions: before 5-FU treatment; for total sulfide concentration in colon tissue: probe 2-6; for kobs in colon tissue: tissue labeled with 2-6
Description: To quantitatively estimate the total sulfide concentration, kinetic experiments were performed in the colon tissue labeled with the compound of [Chemical Formula 2-6].
as §1, §2
Kinetic experiments in rat colon tissue were performed using four colon slices obtained from four rats. Two sets of experiments were performed for each slice. In each set, TPEF intensities from 8 ROI's/section were collected at depths of 90-150 μm (mucosa) and 151-170 μm (submucosa) in the colon tissue labeled with the compound of [Chemical Formula 2-6] and averaged.
The rate constant (kobs) was measured from 7 and 3 sections of the mucosa and submucosa tissues, respectively, in order to obtain 112 kobs and 48 kobs values, respectively. The rate constant (kobs) was expressed as mean±SD and p was set to be smaller than 0.05.

λ^flmax, maximum emission in cells [2]: 450 nm
pH sensitivity [3]: pH-insensitive
SMILES: COCCOCCC1(CCOCCOC)c2cc(NC(=O)OCc3ccc(N=[N+]=[N-])cc3)ccc2-c2ccc(-c3nc4ccccc4s3)cc21 [Chemical Formula 2-6]
average emission ratio F2/F1 ([1]; mucosa (90-150 μm)): 0.82±0.07
average emission ratio F2/F1 ([1]; submucosa (151-170 μm)): 0.67±0.07
total sulfide concentration in colon tissue ([4]; mucosa): 7.0 ± 2.7 µM
kobs in colon tissue ([4]; mucosa): (2.0±0.8)×10^−5 s^−1
total sulfide concentration in colon tissue ([4]; submucosa): 3.8 ± 1.4 µM
kobs in colon tissue ([4]; submucosa): (1.1±0.5)×10^−5 s^−1
